The values that follow come from patent publication US8871794B2, “Small-molecule agonists for type-2 orexin receptor” (Board of Regents, The University of Texas System, priority 2008, dated 2014).

Where two headings read alike, the source gives them in different places.

One data set addresses T1, OX2R (Homo sapiens, UniProt O43614).
T1 sequence (O43614 1-444): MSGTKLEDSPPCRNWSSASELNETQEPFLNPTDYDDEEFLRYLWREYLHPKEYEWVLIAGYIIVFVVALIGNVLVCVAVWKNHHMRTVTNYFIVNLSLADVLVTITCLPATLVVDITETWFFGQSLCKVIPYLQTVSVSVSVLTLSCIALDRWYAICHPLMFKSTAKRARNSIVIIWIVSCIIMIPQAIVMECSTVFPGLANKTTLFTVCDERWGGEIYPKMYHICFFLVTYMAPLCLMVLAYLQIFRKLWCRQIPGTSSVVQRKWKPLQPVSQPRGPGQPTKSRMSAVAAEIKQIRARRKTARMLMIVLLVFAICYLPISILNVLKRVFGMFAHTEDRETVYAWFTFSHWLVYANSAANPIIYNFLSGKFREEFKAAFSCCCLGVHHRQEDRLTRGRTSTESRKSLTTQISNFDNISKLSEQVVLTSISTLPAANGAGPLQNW
The experiment in a line: NFAT-luciferase transcriptional reporter assay in transiently co-transfected HEK293T cells. It counts as cell-based. On the set-up: expressed in transfected cells; host or cells: HEK293T cells, transient co-transfection. A general note: Reporter assays use an easily measured gene product as a stand-in for the process of interest.

A short description of data set [1]: IP pharmacokinetics in C57BL/6 mice (plasma and brain). It counts as in vivo, mouse. The conditions noted are these: 30 mg/kg IP, one of the two mice.
The target in a further data set is T2, GRP receptor (Homo sapiens, UniProt P30550).
T2 construct: Open reading frames of OX1R, OX2R and GRP (control) receptor were inserted into a bicistronic retrovirus expression vector; expressed in transfected cells; host or cells: CHO cells harboring ecotropic retroviral receptor, infected with retrovirus and selected with puromycin
The experiment in a line: Intracellular Calcium Transient Assay in CHO cells expressing control GRP receptor. The conditions noted are these: cells expressing an unrelated Gq-coupled GPCR (GRP receptor). It counts as cell-based. The procedure:
DNA Construction: Open reading frames of OX1R, OX2R and GRP (control) receptor were inserted into a bicistronic retrovirus expression vector, pMXs-IRES-puror (pMXs-IP), which carried a FLAG™ epitope cDNA sequence at the beginning of the ORF sequences encoding their human polypeptides.
Transfection and retrovirus production: Transfection was carried out using FuGENE 6 (Roche Diagnostics Corp.) according to the manufacturer's recommendations. Retroviruse fluid was harvested after 48 hours post transfection.
Cell lines: To generate receptor expressing cells, CHO cells harboring ecotropic retroviral receptor were infected with a retroviral supernatant. After 24 hours post infection, the retrovirus supernatant was removed and infected cells were selected with 10 μg/ml of puromycin (Sigma-Aldrich, St. Louis, Mo.). […]
0.5 ml aliquot of the cell suspension was stimulated by addition of 5 μl of compound dissolved in DMSO. Changes of [Ca^2+]i transients in cells were measured at RT by using CAF-110 Intracellular Ion Analyser (JASCO, Tokyo) with the excitation wave lengths of 340 nm and 380 nm and emission wavelength of 500 nm
For orientation: Calcium assays in cells follow changes in intracellular calcium, usually with a dye or a luminescent sensor.

A short description of data set [2]: IV pharmacokinetics in C57BL/6 mice (plasma and brain). It counts as in vivo, mouse. Particulars: for Kp: brain/plasma, 10 mg/kg; for half-life: read-out: Terminal half life. The procedure:
Pharmacokinetics: Methods: Chembridge Compound 6037874 (“Yan7874”) was provided as a powdered stock and dissolved in DMSO at 50 mg/ml. The compound was formulated as 5% DMSO/5% Cremaphor EL/90% 5% dextrose, pH 7.2 such that compound could be administered to mice at 10-20 mg/kg in a volume of 0.2 ml by IV bolus.
The mice were sacrificed in groups of three by inhalation overdose of CO2 and blood and brain obtained. Plasma was subsequently isolated from the […] by centrifugation in a refrigerated microcentrifuge at 10,000 rpm for 10′. The brain was washed extensively with PBS, blotted dry, weighed, and snap frozen in liquid nitrogen.
An analytical method was developed to detect Yan7874 using LC/MS/MS.
A standard curve was developed in plasma in the following manner. 100 μl of plasma is spiked with varying concentrations of Yan7874. The plasma is allowed to sit 10′ at room temperature after vortexing. 200 μl of acetonitrile is added to precipitate plasma proteins and release bound drug. After vortexing, the sample is incubated 10′ at room temperature. 700 μl of PBS is added and the sample is centrifuged at 14,000 rpm in a standard microcentrifuge for 5′. 900 μl of supernatant is added to 1 ml of PBS. The entire sample is passed over a Waters OASIS HLB solid phased extraction column already primed by addition of 2 ml methanol and 2 ml H2O. The column is washed once with 2 ml of 5% methanol/2% NH4OH in H2O and once with 2 ml of 5% methanol/2% acetic acid in H2O and compound is eluted by addition of 2 ml of methanol containing 2% NH4OH. 500 μl of this is added to 500 μl of H2O containing 0.2% formic acid (final formic acid 0.1%). Samples are prepared in the same manner without addition of spiked compound. Brain tissue is prepared by homogenizing in 3× volume of PBS (weight in grams×3=volume in ml to add). 100 μl of blank brain lysate is used for preparation of standard curve samples while 100 μl of sample brain lysate is used for preparation of samples. To calculate brain levels, the concentration in ng/ml calculated from the standard curve is multiplied by the total volume of lysate (a value in ml estimated from the 3× volume of PBS added +1× volume to account for brain tissue itself) and then divided by the weight of the brain in grams. A value of 3× above the signal obtained from blank plasma or brain lysate is designated the limit of detection (LOD). The LOD for plasma is 2640 and for brain 459. The limit of quantitation (LOQ) is the lowest concentration at which back calculation yields a concentration within 20% of theoretical. The LOQ for both plasma and brain is 5 ng/ml. In general back calculation of points on both curves yielded values within 20% of theoretical over 4 orders of magnitude (10,000 to 5 ng/ml) for both sample types.

The mark [3] stands for this setting: male, C57BL/6, mouse, IV 10 mg/kg, brain.
Where [4] appears, read: male, C57BL/6, mouse, IV 10 mg/kg, plasma.

T2 sequence (P30550 whole entry): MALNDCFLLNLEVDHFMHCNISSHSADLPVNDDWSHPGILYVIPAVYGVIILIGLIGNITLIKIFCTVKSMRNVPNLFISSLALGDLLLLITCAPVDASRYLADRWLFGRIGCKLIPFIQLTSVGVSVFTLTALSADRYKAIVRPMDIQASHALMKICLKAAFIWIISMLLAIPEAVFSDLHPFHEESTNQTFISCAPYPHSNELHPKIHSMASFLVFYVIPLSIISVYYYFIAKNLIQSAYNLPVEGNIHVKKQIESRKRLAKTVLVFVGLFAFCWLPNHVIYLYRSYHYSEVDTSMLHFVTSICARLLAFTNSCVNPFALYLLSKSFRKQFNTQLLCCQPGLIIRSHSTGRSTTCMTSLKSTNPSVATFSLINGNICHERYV

The Cmax is the maximum level reached in the sampled fluid or tissue. The half-life is the time needed for the level to fall by half in the phase considered. For the molecule `Cc1ccc(Cn2c(=N)n(CC(O)c3ccc(Cl)c(Cl)c3)c3ccccc32)cc1` (stereo not shown) [Compound 130699], at OX2R (HEK293T cells, NFAT-luciferase reporter plasmid and receptor cDNA plasmid), the “activation in transcriptional reporter assays” value is recorded as “dramatic activation”. The “Fold Induction, OX2R_NFTA (1)” value at OX2R (assay (1)) was determined as 10.94. The “Fold Induction, OX2R_NFTA (2)” value at OX2R (assay (2)) was 35.566. For the same molecule, the “acute reaction after injection” value was “abdominal guarding and decreased activity for up to one hour” in data set [1]; “no acute reactions were noted” in data set [2] (10 mg/kg IV); “relatively severe reaction marked by a mild seizure and reduced activity for several hours” in data set [2] (20 mg/kg IV, first two mice). For the same molecule, the “Ca2+ response” value on GRP receptor is “no response”. Moreover, the “time after dosing at which peak brain levels achieved” value in data set [2] (10 mg/kg iv) was 30 min. Moreover, in data set [2] (10 mg/kg iv, 30 minutes after dosing), the “peak levels in brain tissue” value is about 2.5 µg/g. The brain penetration result in data set [2] (10 mg/kg iv, mice) was “good brain penetration”. The AUC in data set [2] (IV 10 mg/kg, brain) is 485,627 min*ng/g; in data set [2] (male, C57BL/6, mouse, IV 10 mg/kg, plasma, read-out: AUC (area under the concentration-time curve) (converted)), 1530 ng·h/mL. The Clearance was determined as 0.4 g/min in data set [2] (IV 10 mg/kg, brain) and 2.1 mL/min in data set [2] (male, C57BL/6, mouse, IV 10 mg/kg, plasma, read-out: Clearance). Also, the Kp in data set [2] (male, C57BL/6, mouse, intravenous, 10 mg/kg iv, read-out: peak brain concentrations relative to peak levels in plasma) is about 5; in data set [2] (male, C57BL/6, mouse, iv, IV 10 mg/kg, read-out: Blood Brain Penetration Ratio: AUC brain/AUC plasma), 5.2; in data set [2] (male, C57BL/6, mouse, iv, IV 10 mg/kg, read-out: Blood Brain Penetration Ratio: Cmax brain/Cmax plasma), 4.8. In addition, the concentration at 24 h in data set [2] (male, C57BL/6, mouse, brain, 10 mg/kg iv, 24 hours, read-out: brain levels persisting at 24 hours post-injection) was 5 ng/g. In addition, the Cmax in data set [2] (setting [3]) was found to be 2480 ng/g; in data set [2] (setting [4]) it was 512 ng/mL. For the same molecule, the half-life was found to be 3.12 h in data set [2] (setting [3]) and 1.52 h in data set [2] (setting [4]).
